Assay results as given in patent US6762200B2, “Oxa(thia)zolidine derivative and anti-inflammatory drug” (Nippon Soda Co. Ltd., priority 2000, dated 2004).
Where two headings read alike, the source gives them in different places. Values belong to the compound of their own block, whether it stands above or below them.

Key:
[1] = test system: acetic acid-induced writhes; assay: Acetic acid writhing; format: in vivo, ICR-strain male mouse; conditions: i.p., 10 to 20 min after acetic acid
Method: This test was carried out referring to the method of Inoue, K., Motonaga, A. & Nishimura, T (Arzneimittel Forshung/Drug Research, 41 (1): 235-239 (1991)). More specifically, 7.5 mL/kg of 0.9% acetic acid solution was injected intraperitoneally into an ICR-strain male mouse (5 to 7 weeks old), and the induced writhes (characteristic behaviors of convulsive contracting the abdomen, twisting the body and/or extending the legs) were observed. Number of writhes of each mouse was measured during 10 to 20 min. period after acetic acid administration. The compound of the present invention was homogeneously suspended in 2% Tween 80/saline for injection use, and was injected intraperitoneally 30 min. before the induction by the acetic acid injection. Alternatively, the compound of the present invention was homogeneously suspended in 2% Tween 80/distilled water, and was administrated orally two hours before the induction by the acetic acid injection. The analgesic activity of the compounds according to the present invention was evaluated on the basis of the degree of inhibiting the number writhes by the administration of the compounds. As the positive control, indomethacin or aspirin was administrated. The analgesic activity of the compounds according to the present invention measured in this test were exemplified in Table 7.

[2] = test system: picryl chloride-induced contact dermatitis (ear swelling); assay: Mouse delayed contact dermatitis induced by picryl chloride; conditions: for Ear swelling after 24 hours Left (Not applied) (Mean ± S.E., mm): topical to right ear, non-treated left ear; for Ear swelling after 24 hours Right (Applied) (Mean ± S.E., mm): topical
Method: This pharmacological test was carried out referring to the method of Asherson, G. L. & Ptak, W. (Immunology, 15: 405-416 (1968).) and the method of Jun Hiroi (Folia Pharmacology of Japan, 86: 233-239 (1985).). More specifically, hairs on the abdomen of an ICR-strain male mouse were removed using an electric clip and an electric shaver. Then, 0.1 mL of 7% ether solution of picryl chloride (Tokyo Kasei Kogyo Co., Ltd., C 0307) was applied onto the abdomen for sensitization. On the sixth day after the sensitization, 20 μL/ear of 1% olive oil solution of picryl chloride was topically applied to the anterior and posterior surfaces of both ears of the mouse to induce contact dermatitis (first induction). Before and 24 hours after the induction, the thicknesses of the particular parts on the both ears were measured three times, respectively, using a digimatic micrometer (Mitsutoyo Co., Ltd.) to work out the average values. Ear edema of the both ears was respectively determined by subtracting the average thickness of the each ear before the induction from that on 24 hours after the induction, so that a grouping was carried out to separate the appropriate individuals. On the fourth day after the first induction, the hairs on the abdomen were removed again, and 0.1 mL of 7% ethanol solution of picryl chloride was applied thereto for additional sensitization. The contact dermatitis for evaluating activity was induced by re-applying 20 μL/ear of 1% olive oil solution of picryl chloride to the anterior and posterior surfaces of both ears (second induction) on the seventh day after the additional sensitization (on the […] day after the first sensitization). The activity of each compound of the present invention was evaluated as the inhibition on the contact dermatitis as compared with that of the vehicle applied control. That is, the thicknesses of the particular portions of the both ears were measured respectively three times with a digimatic micrometer to work out the mean values before, 24 hours and 48 hours after the second induction. Ear swelling was determined by subtracting the ear thickness before the second induction from that on 24 hours and 48 hours after the second induction, respectively. Topical application activity was evaluated by applying 25 μL of the acetone solution of the compound of the present invention similarly to the anterior and posterior surfaces of the right ear one hour before and 16 hours after the second induction. As the positive control, 0.02 mg/20 μL of acetone solution of Dexamethasone (hereinafter referred to as DEX, Wako Pure Chemical Industries Ltd., 047-18863) was applied similarly as for the compound of the present invention. With respect to the inhibitory activity in topical application tests, the topical activity was determined by the inhibition of the applied right ear edema, and the translocation and distribution property was determined by the activity onto the swelling of non-treated left ear. Oral administration activity was evaluated by administrating 0.5% methyl cellulose suspension of the compound of the present invention forcibly and perorally to the mouse an hour before and 16 hours after the second induction. As the positive control, 20 mg/kg of Prednisolone (Sigma Chemical Co., P 6004) suspension was administrated similarly as for the compounds of the present invention.

IV-cPLA(2) = biological target: T1, IV-cPLA(2) (Homo sapiens, UniProt P47712); assay: PLA(2) activity, hydrolysis of bis-BODIPY FL C11-PC in activated U937 cells; format: cell-based
T1 sequence (P47712 1-749): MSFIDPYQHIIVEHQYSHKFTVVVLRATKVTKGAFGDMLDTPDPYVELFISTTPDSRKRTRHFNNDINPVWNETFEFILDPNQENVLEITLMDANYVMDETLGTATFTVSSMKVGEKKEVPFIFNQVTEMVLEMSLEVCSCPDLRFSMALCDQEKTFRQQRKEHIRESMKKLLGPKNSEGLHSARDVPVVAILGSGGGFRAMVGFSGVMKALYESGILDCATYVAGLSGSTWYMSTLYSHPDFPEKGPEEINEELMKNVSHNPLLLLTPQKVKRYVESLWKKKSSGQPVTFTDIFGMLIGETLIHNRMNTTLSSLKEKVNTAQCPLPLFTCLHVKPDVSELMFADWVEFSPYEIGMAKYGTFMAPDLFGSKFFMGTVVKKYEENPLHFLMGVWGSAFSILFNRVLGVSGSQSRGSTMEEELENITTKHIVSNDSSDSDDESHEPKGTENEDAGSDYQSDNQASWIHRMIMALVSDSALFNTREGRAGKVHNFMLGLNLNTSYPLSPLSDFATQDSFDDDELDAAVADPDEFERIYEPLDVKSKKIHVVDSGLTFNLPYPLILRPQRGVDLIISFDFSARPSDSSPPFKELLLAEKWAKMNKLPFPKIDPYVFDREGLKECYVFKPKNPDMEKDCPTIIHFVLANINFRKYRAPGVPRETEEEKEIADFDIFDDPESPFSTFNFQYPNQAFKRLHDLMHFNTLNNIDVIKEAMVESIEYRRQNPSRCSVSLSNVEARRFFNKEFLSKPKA
Method: The PLA(2) activity was measured by quantitatively analyzing the fluorescent product of hydrolysis from 1,2-bis-(4,4-difluoro-5,7-dimethyl-4-bora-3a,4a-diaza-s-indecene-3-undecanoyl)-sn-glycero-3-phosphocholine (hereinafter referred to bis-BODIPY®FL C11—PC, Molecular Probes, Inc., B-7701) using activated U937 cells (human monoblastic lymphoma cell line) by inflammatory stimulus (Meshulam, T. et al., The journal of Biological Chemistry 267 (30): 21465-21470 (1992); and Solito, E. et al., British Journal of Pharmacology 124: 1675-1683 (1998).). The substrate bis-BODIPY®FL C11—PC is incorporated into cellular membranes, the proximity of the BODIPY FL fluorophores on adjacent phospholipid acyl chains causes fluorescence self-quenching. Separation of the fluorophores upon hydrolytic cleavage of one of the acyl chains by PLA(1) or the PLA(2) results in increased fluorescence. In the activated U937 by inflammatory stimulus, it is shown that this substrate should be cleaved enzymatically by IV-cPLA(2) from the feature of its behaviors including sensitivity profiles against the inhibitors.
The human cell line U937 was purchased from Dai-Nippon Pharmaceuticals Co., Ltd. The cells were maintained by transferring every 3-4 days into RPMI 1640 medium (Sigma Chemical Co., R6504) supplemented with heat-inactivated 10% fetal bovine serum (Fetal Bovine Serum, Sigma Chemical Co., F 4135) in a 5% CO2 humidified atmosphere at 37° C. The cells were transferred into the culture medium described above, containing 1.2% (v/v) dimethylsulfoxide (hereinafter referred to as […], Nacalai tesque Co., Ltd., D 134-45), and pre-cultured for 96 to 120 hours so as to differentiate into the macrophage-like cells to be provided for the assay. The macrophage-like cells were collected and washed by centrifugation with the Assay medium (Dulbecco's phosphate buffered saline (hereinafter referred to as PBS)-2.2 mM glucose-2.5 μm albumin). Then, Phorbol 12-Myristate 13-Acetate (hereinafter referred to as TPA, Sigma Chemical Co., P 8139) was added to the Assay medium to be 1×10^−8M as the final concentration. Then, the macrophage-like cells were further cultured for an hour to be activated (Rzigalinski, B. A. & Rosenthal, M. D., Biochimica et Biophysica Acta 1223: 219-225 (1994); and Gonchar, M. V. et al., Biochemical and Biophysical Research Communication, 249: 829-832 (1998).).
For preparing substrate liposome suspension, bis-BODIPY®FL C11—PC was combined with phosphatidylcholine (Sigma Chemical Co., P 7769) at 1:9 molar ratio in chloroform, and dried under nitrogen flow. The dried mixture was suspended with the Assay medium at 100 μg/mL, voltexed and sonicated for an hour on ice under dark condition.
The test compound was dissolved with DMSO at 30 mM, and the solution diluted with either DMSO or the Assay medium before addition into the reaction mixture. The DMSO concentration in the reaction mixture was controlled so as to be no more than 0.1%. The 30-fold concentration of test compound solution was put into each well of MICRPTEST™ Tissue Culture Plate, 96 Well (Falcon, 3072) at a rate of 2.5 μL/well. To the respective well was added 25 μL/well of the activated U937 cell suspension ([…]), and the cells were pre-cultured for 120 min. at 37° C. in a 5% CO2 atmosphere incubator. 47.5 μL/well of the substrate liposome suspension with 1.5×10^−6M A23187 (Sigma Chemical Co., C 7522) was added into each well to prepare 75 μL/well of the total reaction mixture, followed by culture for 30 min. under the same conditions with shielding against light. 100 μL/well of 0.1% GEDTA (Dojindo Laboratories Co. Ltd., 348-01311) methanol solution was added into each well and mixed to stop the reaction. […]

TPA-induced ear edema = format: in vivo, ICR-strain male mouse; conditions: topical, 6 hours after TPA
Method: This test was carried out referring to the method of Carlson, R. P. et al. (Agents and Actions, 17(2): 197-204 (1985).) and the method of Chang, J. (European Journal of Pharmacology, 142: 197-205 (1987).). […] 6 hours later, the thickness of each ear at the particular part was respectively measured three times using a digimatic micrometer to calculate the mean value. Ear edema was determined by subtracting the mean thickness of the left ear as without treatment from that of the right ear as TPA-applied. […] As the positive control, 100 mg/kg of Hydrocortisone (Sigma Chemical Co., H 4001) suspension was applied to the mouse similarly as for the compound of the present invention.

SMILES: COc1ccc2c(c1)c(CC(=O)O)c(C)n2C(=O)c1ccc(Cl)cc1 [Indomethacin, indomethacin, reference compound]
Number of writhes (Mean ± S.E.) ([1]; 3 mg/kg): 13.8 ± 3.0
Number of writhes (Mean ± S.E.) ([1]; 10 mg/kg): 4.8 ± 0.9

SMILES: CC1C(c2ccc(C(=O)OC(F)(F)F)cc2)SC(=O)N1C(=O)NC1CCCCO1 (stereo not drawn) [Compound 2-240]
Ear swelling after 24 hours Left (Not applied) (Mean ± S.E., mm) ([2]; 1.5 mg/25 μL/ear × 2): 0.238 ± 0.024 mm
Ear swelling after 24 hours Right (Applied) (Mean ± S.E., mm) ([2]; 1.5 mg/25 μL/ear × 2): 0.246 ± 0.009 mm

SMILES: C[C@@H]1C[C@H]2[C@@H]3CCC4=CC(=O)C=C[C@]4(C)[C@@]3(F)[C@@H](O)C[C@]2(C)[C@@]1(O)C(=O)CO [DEX, Dexamethasone, reference compound]
Change in body weight 48 hours after induction (Mean ± S.E.) ([2]; 0.02 mg/ear × 2): -1.42 ± 0.20 g
Change in body weight 48 hours after induction (Mean ± S.E.) (%) ([2]; 0.02 mg/ear × 2): −4.30 ± 0.59%
General condition and body weight of mice ([2]; 48 hours after the second induction): generally bad symptoms and reducing their body weight significantly
Ear swelling after 24 hours Left (Not applied) (Mean ± S.E., mm) ([2]; dose 0.02 mg/ear × 2): −0.005 ± 0.033 mm
Ear swelling after 24 hours Right (Applied) (Mean ± S.E., mm) ([2]; dose 0.02 mg/ear × 2): 0.057 ± 0.009 mm

SMILES: CC(=O)Oc1ccccc1C(=O)O [Aspirin, aspirin, reference compound]
Number of writhes (Mean ± S.E.) ([1]; 30 mg/kg): 9.5 ± 2.0

SMILES: CCOC(=O)C(C)NC(=O)N1C(=O)OC(c2ccc(C)cc2)C1C (stereo not drawn) [Compound 2-54]
Inhibition (%) (IV-cPLA(2); 0.1 μM): 95%
Ear Edema Inhibition (%) (TPA-induced ear edema; 0.3 mg/20 μL/ear × 2): 64%

SMILES: CC(=O)N=C1SC(c2ccccc2)C(C)N1C(=O)NC1CCCCC1 (stereo not drawn) [Compound 1-43]
Ear swelling after 24 hours Left (Not applied) (Mean ± S.E., mm) ([2]; 1.5 mg/25 μL/ear × 2): 0.201 ± 0.008 mm
Ear swelling after 24 hours Right (Applied) (Mean ± S.E., mm) ([2]; 1.5 mg/25 μL/ear × 2): 0.196 ± 0.029 mm

SMILES: CC(C)N=C1OC(c2ccc(Cl)cc2)C(C)N1C(=O)NC1CCCCC1 (stereo not drawn) [Compound 1-28]
Inhibition (%) (IV-cPLA(2); 0.1 μM): 93%
Ear Edema Inhibition (%) (TPA-induced ear edema; 1 mg/20 μL/ear × 2): 36%

Now from value to compound, other results behind:

Inhibition (%) (IV-cPLA(2); 1 μM): 78%
SMILES: CC1C(c2ccc(Cl)cc2)SC(=O)N1C(=S)NC1CCCCC1 (stereo not drawn) [Compound 2-194]
Ear swelling after 24 hours Left (Not applied) (Mean ± S.E., mm) ([2]; 1.5 mg/25 μL/ear × 2): 0.226 ± 0.016 mm
Ear swelling after 24 hours Right (Applied) (Mean ± S.E., mm) ([2]; 1.5 mg/25 μL/ear × 2): 0.223 ± 0.010 mm

Inhibition (%) (IV-cPLA(2); 0.01 μM): 54%
SMILES: CC1C(c2ccc3c(c2)CCC3)OC(=O)N1C(=O)NC1CCCCO1 (stereo not drawn) [Compound 2-127]
Ear Edema Inhibition (%) (TPA-induced ear edema; 1 mg/40 μL/ear × 2): 81%

Inhibition (%) (IV-cPLA(2); 0.1 μM): 100%
SMILES: Cc1ccc(C2OC(=O)N(C(=O)NS(=O)(=O)c3ccccc3C)C2C)cc1 (stereo not drawn) [Compound 2-60]
Ear Edema Inhibition (%) (TPA-induced ear edema; 1 mg/40 μL/ear × 2): 53%

Inhibition (%) (IV-cPLA(2); 0.1 μM): 94%
SMILES: CCN(CC)S(=O)(=O)NC(=O)N1C(=O)OC(c2ccc(C)cc2)C1C (stereo not drawn) [Compound 2-55]
Ear Edema Inhibition (%) (TPA-induced ear edema; 1 mg/40 μL/ear × 2): 54%

Inhibition (%) (IV-cPLA(2); 1 μM): 81%
SMILES: CC1C(c2ccc(Oc3ccccc3)cc2)OC(=O)N1C(=O)NC1CCCO1 (stereo not drawn) [Compound 2-128]
Ear Edema Inhibition (%) (TPA-induced ear edema; 1 mg/40 μL/ear × 2): 49%
